Experimental data as given in publication PMC10394672, “Crystal structure of dihydrofolate reductase from the emerging pathogenic fungus Candida auris” (Acta Crystallographica. Section D, Structural Biology, 2023).
Values after ≈ are worked out from the molar mass of the structure shown. Read-outs that look alike come from different tables or passages of the source.

Experiments:
[1] = biological target: T1, dihydrofolate reductase (CauDHFR) (Candidozyma auris, UniProt A0A0L0P1H8); experiment: ([…] Å); DSF shift +[…] °C; NADPH-consumption IC50; format: biochemical
T1 construct: gene QG37_02791; His-tag-removed CauDHFR
T1 sequence (A0A0L0P1H8 1-204): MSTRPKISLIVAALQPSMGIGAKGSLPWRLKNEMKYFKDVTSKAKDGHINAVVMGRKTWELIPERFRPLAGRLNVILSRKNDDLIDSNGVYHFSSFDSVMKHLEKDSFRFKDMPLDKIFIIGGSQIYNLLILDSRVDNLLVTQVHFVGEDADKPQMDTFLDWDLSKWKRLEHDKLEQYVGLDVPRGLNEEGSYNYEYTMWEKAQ

C. albicans = test system: T2, C. albicans; experiment: microbe, parasite or virus in culture; design: species or system Candida yeast; conditions: Candida albicans, 24 h, 50% growth inhibition end point
T2 construct: SC 5314
Description: (§1) The antifungal activity of DHFR inhibitors was evaluated against C. albicans (SC 5314), C. glabrata (ATCC 2001) and C. auris (CBS 12766) by the broth microdilution technique (CLSI, 2017[▸]). DHFR inhibitors were serially diluted (1:2) in RPMI 1640 medium buffered with 0.165 M 3-(N-morpholino)propanesulfonic acid in 96-well flat-bottom plates and yeast suspension was added to the wells to obtain a final yeast concentration of 0.5–2.5 × 10^3 CFU ml^−1 and final concentrations of DHFR inhibitors in the range 1–500 µg ml^−1. […] Studies were then performed against Candida spp. yeasts, with the addition of two more antifolates: diaveridine (DIA) and pemetrexed (PMX) (Supplementary Table S1). The inhibitory effect of these inhibitors on the fungal growth of C. albicans, C. glabrata and C. auris was tested using the broth microdilution assay. […] (Supplementary Table S1), including C. auris, supporting the lack of affinity seen in the IC50 assay (Table 2 ▸).

C. auris = test system: T3, C. auris; experiment: microbe, parasite or virus in culture; design: species or system Candida yeast; conditions: Candidozyma auris, 24 h, 50% growth inhibition end point
T3 construct: CBS 12766
Description: as §1

C. glabrata = test system: T4, C. glabrata; experiment: microbe, parasite or virus in culture; design: species or system Candida yeast; conditions: Nakaseomyces glabratus, 24 h, 50% growth inhibition end point
T4 construct: ATCC 2001
Description: as §1

CC1(C)N=C(N)N=C(N)N1c1ccc(Cl)cc1 [CYG, cycloguanil]
IC50 [1]: 401 µM
MIC (C. albicans; read-out: MIC cycloguanil): 500 µg/mL (≈ 1990 µM)
MIC (C. auris; read-out: MIC cycloguanil): > 500 µg/mL
MIC (C. glabrata; read-out: MIC cycloguanil): 500 µg/mL (≈ 1990 µM)

CN(Cc1cnc2nc(N)nc(N)c2n1)c1ccc(C(=O)N[C@@H](CCC(=O)O)C(=O)O)cc1 [MTX, methotrexate]
MIC (C. albicans; read-out: MIC methotrexate): 250 µg/mL (≈ 550 µM)
MIC (C. auris; read-out: MIC methotrexate): > 500 µg/mL
MIC (C. glabrata; read-out: MIC methotrexate): > 500 µg/mL

CCc1nc(N)nc(N)c1-c1ccc(Cl)cc1 [PYR, pyrimethamine]
MIC (C. albicans; read-out: MIC pyrimethamine): 62.5 µg/mL (≈ 251 µM)
MIC (C. auris; read-out: MIC pyrimethamine): 125 µg/mL (≈ 503 µM)
MIC (C. glabrata; read-out: MIC pyrimethamine): 62.5 µg/mL (≈ 251 µM)

COc1cc(Cc2cnc(N)nc2N)cc(OC)c1OC [TMP, trimethoprim]
MIC (C. albicans; read-out: MIC trimethoprim): 500 µg/mL (≈ 1720 µM)
MIC (C. auris; read-out: MIC trimethoprim): > 500 µg/mL
MIC (C. glabrata; read-out: MIC trimethoprim): 500 µg/mL (≈ 1720 µM)

COc1ccc(Cc2cnc(N)nc2N)cc1OC [diaveridine]
MIC (C. albicans; read-out: MIC diaveridine): > 500 µg/mL
MIC (C. auris; read-out: MIC diaveridine): > 500 µg/mL
MIC (C. glabrata; read-out: MIC diaveridine): 500 µg/mL (≈ 1920 µM)

Nc1nc2[nH]cc(CCc3ccc(C(=O)N[C@@H](CCC(=O)O)C(=O)O)cc3)c2c(=O)[nH]1 [pemetrexed]
MIC (C. albicans; read-out: MIC pemetrexed): 500 µg/mL (≈ 1170 µM)
MIC (C. auris; read-out: MIC pemetrexed): > 500 µg/mL
MIC (C. glabrata; read-out: MIC pemetrexed): 500 µg/mL (≈ 1170 µM)
